According to patent US9718820B2, “Substituted aza-bicyclic imidazole derivatives useful TRPM8 receptor modulators” (Janssen Pharmaceutica NV, priority 2010, dated 2017):

Legend:
canine TRPM8 = canine TRPM8 (Canis lupus familiaris, UniProt Q1A7N1); assay: In vitro canine TRPM8 functional assay (icilin-induced intracellular Ca2+ increase, FLIPR/FDSS); format: cell-based; conditions: 0.2 μM compound; icilin response in HEK293 cells stably expressing canine TRPM8
Method: The functional activity of representative compounds of the formula (I) of the present invention was quantified by measuring changes in intracellular calcium concentration using a Ca^2+-sensitive fluorescent dye. The changes in fluorescent signal were monitored by a fluorescence plate reader, either a FLIPR™ (Molecular Devices) or FDSS (Hamamatsu).
HEK293 cells stably expressing canine TRPM8 were routinely grown as monolayers in Dulbecco's minimum essential medium supplemented with 10% FBS, 2 mM L-glutamine, 100 units/mL penicillin, 100 ug/mL streptomycin and 400 μg/mL G418. Cells were maintained in 5% CO2 at 37° C. […] Cells were treated with compounds of the formula (I) at varying concentrations and intracellular Ca^2+ was measured for 5 min prior to the addition of icilin to each well to achieve a final concentration that produces an approximately 80% maximal response.
Maximal fluorescence intensity (FI) achieved upon addition of icilin was exported from the FLIPR™ or FDSS software and further analyzed using GraphPad Prism 3.02 (Graph Pad Software Inc., CA, U.S.A.). […] Finally, the EC50 and IC50 values were calculated with the best-fit curve determined by GraphPad Prism

TRPM8 channel = TRPM8 channel (Rattus norvegicus (Rat), UniProt Q8R455); assay: Inhibition of icilin-induced "wet-dog" shakes in rats; format: in vivo; conditions: 10 mg/kg p.o. in 10% HP-β-CD, icilin 3.0 mg/kg i.p.
Method: Similar shaking or jumping behavior was also evident in mice, rabbits, cats, dogs and monkeys. In humans, icilin produced a sensation of coolness on contact with mucous membranes, cold prickling when 0.1 mg was dropped on the tongue and coldness in the mouth, pharynx and chest lasting 30-60 min when 5-10 mg was ingested orally (WEI, E. T., et al., “AG-3-5: a chemical producing sensations of cold”, J Pharm Pharmacol., 1983, pp 110-112, Vol. 35). The inhibition or reversal of icilin-induced shaking behaviors in rodents provides evidence for the engagement and functional blockade of the TRPM8 channel and thereby for the utility of TRPM8 antagonists in treating or preventing a disease or condition in a mammal in which the disease or condition is affected by the modulation of TRPM8 receptors.
Male Sprague Dawley rats (220-450 g, Charles River Labs, n=6-9/treatment) were used to evaluate the ability of test compounds to block icilin-induced “wet-dog” shakes (WDS). […] Icilin was then administered in 10% solutol/H2O, at 3.0 mg/kg, i.p., and spontaneous “wet-dog” shakes were counted 10 min following the icilin injection over a 10-min period.

canine TRPM8, sequence (Q1A7N1 1-1104): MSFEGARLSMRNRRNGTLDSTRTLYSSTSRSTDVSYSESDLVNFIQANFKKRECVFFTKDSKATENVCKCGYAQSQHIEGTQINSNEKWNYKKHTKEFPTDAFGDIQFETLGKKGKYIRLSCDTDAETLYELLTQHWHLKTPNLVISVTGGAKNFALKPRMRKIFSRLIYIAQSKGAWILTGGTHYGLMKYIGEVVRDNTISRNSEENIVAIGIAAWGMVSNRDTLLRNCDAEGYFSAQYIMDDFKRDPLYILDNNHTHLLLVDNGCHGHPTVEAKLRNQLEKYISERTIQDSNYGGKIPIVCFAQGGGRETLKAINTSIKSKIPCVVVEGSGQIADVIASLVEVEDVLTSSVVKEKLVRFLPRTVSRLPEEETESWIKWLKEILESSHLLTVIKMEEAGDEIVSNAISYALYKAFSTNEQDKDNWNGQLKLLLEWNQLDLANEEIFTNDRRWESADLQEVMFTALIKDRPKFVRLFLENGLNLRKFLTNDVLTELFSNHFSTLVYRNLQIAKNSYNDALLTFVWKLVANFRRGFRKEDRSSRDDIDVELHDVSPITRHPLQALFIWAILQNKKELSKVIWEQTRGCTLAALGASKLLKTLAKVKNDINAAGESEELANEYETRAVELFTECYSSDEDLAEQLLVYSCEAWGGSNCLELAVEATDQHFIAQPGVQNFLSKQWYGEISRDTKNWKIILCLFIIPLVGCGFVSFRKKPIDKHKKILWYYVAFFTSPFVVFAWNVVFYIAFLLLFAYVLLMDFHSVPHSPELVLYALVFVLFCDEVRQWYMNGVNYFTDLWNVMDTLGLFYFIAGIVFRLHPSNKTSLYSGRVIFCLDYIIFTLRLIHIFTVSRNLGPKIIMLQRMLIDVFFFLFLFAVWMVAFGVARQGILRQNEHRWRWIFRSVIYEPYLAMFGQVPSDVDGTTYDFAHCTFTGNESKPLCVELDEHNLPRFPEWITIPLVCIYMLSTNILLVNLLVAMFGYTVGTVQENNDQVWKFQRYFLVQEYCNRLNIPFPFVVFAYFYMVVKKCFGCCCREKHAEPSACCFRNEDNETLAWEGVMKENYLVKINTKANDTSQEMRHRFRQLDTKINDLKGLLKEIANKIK
TRPM8 channel, sequence (Q8R455 whole entry): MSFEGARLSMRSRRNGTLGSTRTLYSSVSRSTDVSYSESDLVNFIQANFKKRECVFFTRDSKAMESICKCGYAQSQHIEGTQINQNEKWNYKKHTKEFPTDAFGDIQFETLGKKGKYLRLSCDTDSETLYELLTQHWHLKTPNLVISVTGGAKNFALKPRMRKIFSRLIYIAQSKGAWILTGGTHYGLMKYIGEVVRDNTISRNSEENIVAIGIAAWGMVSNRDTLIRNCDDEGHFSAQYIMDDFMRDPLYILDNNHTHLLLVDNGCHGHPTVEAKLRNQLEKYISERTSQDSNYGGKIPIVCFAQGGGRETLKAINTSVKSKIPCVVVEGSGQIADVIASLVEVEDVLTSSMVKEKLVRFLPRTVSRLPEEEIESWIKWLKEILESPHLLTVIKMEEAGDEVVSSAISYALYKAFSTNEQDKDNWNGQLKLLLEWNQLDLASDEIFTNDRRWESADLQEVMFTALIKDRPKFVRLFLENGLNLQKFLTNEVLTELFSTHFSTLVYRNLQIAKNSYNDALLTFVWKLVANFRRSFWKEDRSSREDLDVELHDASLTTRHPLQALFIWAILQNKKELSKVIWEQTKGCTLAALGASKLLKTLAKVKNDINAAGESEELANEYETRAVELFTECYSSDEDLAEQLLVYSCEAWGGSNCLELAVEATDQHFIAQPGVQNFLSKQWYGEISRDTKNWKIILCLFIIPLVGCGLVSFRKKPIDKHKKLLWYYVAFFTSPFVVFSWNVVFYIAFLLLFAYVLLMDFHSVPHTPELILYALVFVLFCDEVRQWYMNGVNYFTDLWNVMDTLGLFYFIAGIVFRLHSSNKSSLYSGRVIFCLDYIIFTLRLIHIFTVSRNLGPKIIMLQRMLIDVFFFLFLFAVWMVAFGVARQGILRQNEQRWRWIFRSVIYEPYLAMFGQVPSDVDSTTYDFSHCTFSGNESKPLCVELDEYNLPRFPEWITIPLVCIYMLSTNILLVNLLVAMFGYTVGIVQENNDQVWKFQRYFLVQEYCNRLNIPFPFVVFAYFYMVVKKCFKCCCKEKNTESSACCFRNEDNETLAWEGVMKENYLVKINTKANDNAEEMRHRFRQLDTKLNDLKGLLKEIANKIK

Icilin % Inhibition @ 1.5 h, 10 mg/kg (TRPM8 channel) [%]	SMILES	% Inh @ 0.2 μM (canine TRPM8) [%]
–	Cn1nc(C(C)(C)C)c(Cl)c1-c1nc2nc(-c3ccccc3C(F)(F)F)cc(C(F)(F)F)c2[nH]1 [Compound 1]	99
38	COc1nc(-c2ccccc2Cl)cc2nc(-c3c(C#N)c(C(C)(C)C)nn3C)[nH]c12.CS(=O)(=O)O [Compound 17, 3-tert-Butyl-5-[6-(2-chloro-phenyl)-4-methoxy-3H-imidazo[4,5-c]pyridine-2-yl]-1-methyl-1H-pyrazole-4-carbonitrile methanesulfonic acid salt]	–
–	Cn1nc(C(C)(C)C)c(Cl)c1-c1nc2nc(-c3ccccc3Cl)cnc2[nH]1 [Compound 110]	99
